From US6902741B1, “Laminates containing an active substance transdermal system” (Jenapharm GmbH & Co. KG, priority 1999, dated 2005) come the findings set out here.

The format of this data set is physicochemical. The text has this:
In this manner, by use of solid polymer inclusions, optimum active substance loadings can be attained in different polymers. The active substance concentrations in the polymer inclusions can be stabilized at a very high level so that only minimum amounts of additional solvent are needed. In cases where the solubility of the drug in the adhesive is the primary factor limiting skin permeation, the method of preparation described under B) must be chosen.
When such solid active substance inclusions are introduced into adhesive matrix solutions in dissolved form, the high solubility of the inclusion polymer in the matrix solvent used, for example ethyl acetate, ethanol etc, is important. Rapid dissolution of the amorphous active substance is attained to a level far above its saturation solubility in the pure solvent. For example, at room temperature ethyl acetate dissolves only about 3 wt. % of a gestagenic steroid. By use of a corresponding solid active substance solution, the solubility of the steroid in the solution of ethyl acetate and nonadhesive polymer was increased to nearly 15 wt. % and kept stable. It should be kept in mind in this respect that, based on the volatile solvent ethyl acetate which is to be driven off from the adhesive matrix that is to be dried, the solubility was increased to more than 30 wt. %. […]

As for `C#C[C@]1(O)C=C[C@H]2[C@@H]3CCC4=CC(=O)CC[C@@H]4[C@H]3CC[C@@]21CC` [gestodene], the “solubility in ethyl acetate” value amounted to 3%.
